One assay relates to THP-1 cells. As to the kind of experiment: LPS-induced TNF-α secretion from THP-1 cells (ELISA). The class given is cell-based, human. To be noted: LPS 100 ng/ml, 4 hours. (ELISA stands for enzyme-linked immunosorbent assay.)
Another assay relates to A549 cells. In kind it is cell-based, human. The conditions noted are these: 48 hours, MTT, 0.3-90 μg/ml peptide. As for the experimental part:
A549 cells were seeded at 6000 cells/well in […] of media (DMEM medium+5% FBS) in a 96 well plate and incubated over-night (O.N). Cells were starved in 100 μl of serum free medium (SFM) containing 0.1% FBS, O.N. All lyophilized peptides were dissolved in H2O (prewarmed to 50° C.) and hand-stirred, giving a final concentration of 1 mg/ml. Reconstituted peptides were added in concentrations of 0.3, 1, 3, 10, 30 or 90 μg/ml and the cells were incubated for 48 hours.
Cell proliferation was measured using MTT assay as follows: 20 μl of MTT solution ((3-[4,5-Dimethyl-2-thiazolyl]-2,5-diphenyl-2H-tetrazolium bromide, Sigma Cat#M5655, lot#085k5322, 1 gr was dissolved in 200 ml H2O and filtered, giving a final concentration of 5 mg/ml) were added to each well for 4 hrs, after which the medium was vacuumed and 100 μl of DMSO were added to each well. Absorbance was measured in an ELISA reader at 492 nm. The results are shown in FIG. 8, and depicted in percent relative to untreated cells (which was defined as 100).

A further assay deals with HCT116. As to the kind of experiment: Proliferation of HCT116 cells (MTT assay). The class given is cell-based, human. The conditions noted are these: HCT116, 48 hours, 0.003-60 μg/ml peptide. The procedure: (§1) Cells were seeded at 5000 cells/well in 200 μl of media (DMEM medium+5% FBS) in a 96 well plate and incubated over-night (O.N). Cells were starved in 100 μl of serum free medium (SFM) containing 0.1% FBS, O.N. All lyophilized peptides were dissolved in H2O (prewarmed to 50° C.) and hand-stirred, giving a final concentration of 1 mg/ml. Reconstituted peptides were added in concentrations of 0.003, 0.009, 0.028, 0.084, 0.25, 0.76, 2.28, 6.66, 20 and 60 μg/ml and the cells were incubated for 48 hours.
(§2) Cell proliferation was measured using MTT assay: 20 μl of MTT solution ((3-[4,5-Dimethyl-2-thiazolyl]-2,5-diphenyl-2H-tetrazolium bromide, Sigma Cat#M5655, lot#085k5322, 1 gr was dissolved in 200 ml H2O and filtered, giving a final concentration of 5 mg/ml) were added to each well for 4 hrs, after which the medium was vacuumed and 100 μl of DMSO were added to each well. Absorbance was measured in an ELISA reader at 492 nm.
In general terms: Formazan colour is commonly taken as a measure of viable cells.

For a further assay, the system named is SW480. Description: Proliferation of SW480 cells (MTT assay). The class given is cell-based, human. To be noted: SW480, 48 hours, 0.003-60 μg/ml peptide. The procedure: as §1, §2
In another assay the test system is HT29. Description: Proliferation of HT29 cells (MTT assay). In kind it is cell-based, human. The conditions noted are these: HT29, 48 hours, 0.003-60 μg/ml peptide. The procedure: as §1, §2
The next assay deals with MCF7. As to the kind of experiment: Proliferation of MCF7 cells (MTT assay). The class given is cell-based, human. The conditions noted are these: MCF7, 48 hours, 0.003-60 μg/ml peptide. As for the experimental part:
as §1, §2

In another assay the test system is human PBMCs. Description: Anti-CD3-induced cytokine release from human PBMCs (Luminex). In kind it is cell-based. The conditions noted are these: PBMCs treated with anti-CD3 antibody (1 μg/ml), 48 hours; peptide 30 μg/ml=6 μM (FIG. 2). The procedure:
Peptides were assayed at two concentrations (3 and 30 ug/mL) in duplicates. Cryopreserved PBMCs were drip-thaw and seeded at 1×10^4 cells/well in 140 μl of media per well. Cells were incubated for 1 hour at 37° C. at 5% CO2 and a peptide of the invention or Dexamethasone as a control, were added in 20 μl of medium. Cells were incubated for 30 minutes and anti-CD3 antibody (1 μg/ml) was added at the appropriate concentration in 40 μl of medium. Plates were incubated for 48 hours, spinned at 1200 rpm for 10 minutes and supernatants were collected and stored at −80° C. Cytokines' concentration was measured using a Luminex analyzer (IS100, Luminex Corporation) and bead-based reagents (Upstate Biotechnology).

Procedure for THP-1 cells: THP-1 cells were seeded at 2×10^5 cells/ml in 100 μl of media (RPMI-1640 medium+10% FBS) in a 96 well plates. The reconstituted peptide at final concentrations of 20, 60, 180, 540, 1620, 4860 or 14580 nM were added to the relevant wells in a volume of 100 μl and LPS at a final concentration of 100 ng/ml (Sigma, Cat # L-6529, Lot #054K4022, stock concentration of 1 mg/ml) was added to the wells in a volume of 100 μl. Plates were incubated for 4 hours and then centrifuged 5 minutes at 4000 rpm. Conditioned medium (200 μl) was transferred to new plates and kept at −20° C. The concentration of TNF-α was measured using TNF-α ELISA (R&D Systems, Human TNF-alpha Quantikine ELISA Kit, Cat # STA00C).
THP-1 cells were seeded at 2×10^5 cells/ml in 100 μl of media (RPMI-1640 medium+10% FBS) in 96 well plates. The reconstituted peptide at final concentrations of 0.3, 1, 10, 30 or 60 μg/ml were added to the relevant wells in a volume of 100 μl and LPS at a final concentration of 100 ng/ml (Sigma, Cat # L-6529, Lot #054K4022, stock concentration of 1 mg/ml) was added to the wells in a volume of 100 Plates were incubated for 4 hours and then centrifuged 5 minutes at 4000 rpm. Conditioned medium (200 μl) was transferred to new plates and kept at −20° C. The concentration of TNF-α was measured using TNF-α ELISA (R&D Systems, Human TNF-alpha Quantikine ELISA Kit, Cat # STA00C).

As to “Ac-HKLLKVIRKKLVRKTLDMIKKIADDKYNDTFWKEF-NH2 [CGEN-GP5]”, in the assay with THP-1 cells (10 μg/ml peptide), the “inhibition of LPS-induced TNF-α secretion” value was 100%. Besides, the “inhibition of proliferation, dose dependence” value in the assay on A549 cells, with HCT116, with SW480, in the assay with HT29 and in the assay on MCF7 was “dose-dependent” throughout.
Take “IYVWSSKTETVEEPMEEEEAAKEEKEESDDEA (Ac-IYVWSSKTETVEEPMEEEEAAKEEKEESDDEA-NH2) [CGEN-GP3]”: in the assay with human PBMCs, the “decrease of IL-1α” value is given as 30%, the “decrease of IL-1β” value is recorded as 60%, the “decrease of IL-2 release” value was 70% and the “decrease of IL-12p40” value amounted to 40%. Further, in the assay on human PBMCs, the “decrease of IL-12p70” value is reported as 70%, the “decrease of TNFα” value was “approximately 30%” and the “inhibition of GM-CSF release” value was “no effect”.
As to `CC[C@H](C)[C@H](NC(=O)[C@H](CCCCN)NC(=O)[C@H](CCCCN)NC(=O)[C@@H](NC(=O)[C@H](CCSC)NC(=O)[C@H](CC(=O)O)NC(=O)[C@H](CC(C)C)NC(=O)[C@@H](NC(=O)[C@H](CCCCN)NC(=O)[C@H](CCCNC(=N)N)NC(=O)[C@@H](NC(=O)[C@H](CC(C)C)NC(=O)[C@H](CCCCN)NC(=O)[C@H](CCCCN)NC(=O)[C@H](CCCNC(=N)N)NC(=O)[C@@H](NC(=O)[C@@H](NC(=O)[C@H](CCCCN)NC(=O)[C@H](CC(C)C)NC(=O)[C@H](CC(C)C)NC(=O)[C@H](CCCCN)NC(=O)[C@H](Cc1c[nH]cn1)NC(=O)[C@H](CCC(N)=O)NC(=O)[C@H](CCC(N)=O)NC(=O)[C@H](CC(C)C)NC(=O)[C@@H](NC(C)=O)[C@@H](C)O)C(C)C)[C@@H](C)CC)C(C)C)[C@@H](C)O)[C@@H](C)CC)C(=O)N[C@@H](C)C(=O)N[C@@H](CC(=O)O)C(=O)N[C@@H](CC(=O)O)C(=O)N[C@@H](CCCCN)C(=O)N[C@@H](Cc1ccc(O)cc1)C(N)=O` [CGEN-GP4], in the assay with THP-1 cells (30 μg/ml peptide), the “inhibition of LPS-induced TNF-α secretion” value is 100%. Besides, the “inhibition of proliferation, dose dependence” value in the assay on A549 cells is “dose-dependent”.

(Values after patent publication US8512708B2, “GP96 derived peptides” (Compugen Ltd., priority 2008, dated 2013).)
